The results in this text go back to patent US10112941B2, “Tricyclic compounds as anticancer agents” (BRISTOL-MYERS SQUIBB COMPANY, priority 2013, dated 2018).

The assay deals with BRD4 (Homo sapiens, UniProt O60885). The assay is described as follows: Time Resolved Fluorescence Resonance Energy Transfer (TR-FRET) binding assay, BRD4. The settings on record: one of the FRET assays described; read-out: FRET BRD4 IC50. In general terms: Time-resolved FRET reads energy transfer from a long-lived donor to a nearby acceptor.
As to `Cc1nnn(C)c1-c1cnc2c3ccc(C(C)(C)O)cc3n(C(c3cc(F)ccc3F)C3CCOCC3)c2c1` (single isomer, unassigned) [Example 132, 2-{5-[(2,5-Difluorophenyl)(oxan-4-yl)methyl]-3-(dimethyl-1H-1,2,3-triazol-5-yl)-5H-pyrido[3,2-b]indol-7-yl}propan-2-ol], the IC50 (commonly the concentration that gives 50% inhibition) was less than 5 nM.

For the molecule `Cc1nnn(C)c1-c1cnc2c3ccc(C(C)(C)O)cc3n(C(c3c(F)cccc3F)C3CCOCC3)c2c1` (single isomer, unassigned) [Example 133, 2-{5-[(2,6-Difluorophenyl)(oxan-4-yl)methyl]-3-(dimethyl-1H-1,2,3-triazol-5-yl)-5H-pyrido[3,2-b]indol-7-yl}propan-2-ol], the concentration for half-maximal inhibition (IC50) was less than 5 nM.

As for `Cc1nnn(C)c1-c1cnc2c3ccc(C(C)(C)O)cc3n(C(c3c(F)cccc3F)C3CCOCC3)c2c1` (single isomer, unassigned) [Example 134, 2-{5-[(2,6-Difluorophenyl)(oxan-4-yl)methyl]-3-(dimethyl-1H-1,2,3-triazol-5-yl)-5H-pyrido[3,2-b]indol-7-yl}propan-2-ol], the concentration for half-maximal inhibition (IC50) was less than 5 nM.

Regarding `Cc1nnn(C)c1-c1cnc2c3ccc(C(C)(C)O)cc3n(C(c3ccc(F)cc3F)C3CCOCC3)c2c1` (single isomer, unassigned) [Example 135, 2-{5-[(2,4-Difluorophenyl)(oxan-4-yl)methyl]-3-(dimethyl-1H-1,2,3-triazol-5-yl)-5H-pyrido[3,2-b]indol-7-yl}propan-2-ol], the IC50 is less than 5 nM.

As to `Cc1nnn(C)c1-c1cnc2c3ccc(C(C)(C)O)cc3n(C(c3ccc(F)cc3F)C3CCOCC3)c2c1` (single isomer, unassigned) [Example 136, 2-{5-[(2,4-Difluorophenyl)(oxan-4-yl)methyl]-3-(dimethyl-1H-1,2,3-triazol-5-yl)-5H-pyrido[3,2-b]indol-7-yl}propan-2-ol], the concentration for half-maximal inhibition (IC50) is less than 5 nM.

Take `COc1cc(C(C)(C)O)cc2c1c1ncc(-c3c(C)nnn3C)cc1n2C(c1ccccc1F)C1CCOCC1` (single isomer, unassigned) [Example 137, 2-[3-(Dimethyl-1H-1,2,3-triazol-5-yl)-5-[(2-fluorophenyl)(oxan-4-yl)methyl]-9-methoxy-5H-pyrido[3,2-b]indol-7-yl]propan-2-ol]: the IC50 was less than 5 nM.

On to `COc1cc(C(C)(C)O)cc2c1c1ncc(-c3c(C)nnn3C)cc1n2C(c1ccccc1F)C1CCOCC1` (single isomer, unassigned) [Example 138, 2-[3-(Dimethyl-1H-1,2,3-triazol-5-yl)-5-[(2-fluorophenyl)(oxan-4-yl)methyl]-9-methoxy-5H-pyrido[3,2-b]indol-7-yl]propan-2-ol], for which the IC50 is less than 5 nM.

`Cc1noc(C)c1-c1cnc2c3ccc(C(C)(C)O)cc3n(C(c3cc(F)ccc3F)C3CCOCC3)c2c1` (single isomer, unassigned) [Example 139, 2-{5-[(2,5-Difluorophenyl)(oxan-4-yl)methyl]-3-(dimethyl-1,2-oxazol-4-yl)-5H-pyrido[3,2-b]indol-7-yl}propan-2-ol]: the IC50 is less than 5 nM.

For the molecule `Cc1noc(C)c1-c1cnc2c3ccc(C(C)(C)O)cc3n(C(c3cc(F)ccc3F)C3CCOCC3)c2c1` (single isomer, unassigned) [Example 140, 2-{5-[(2,5-Difluorophenyl)(oxan-4-yl)methyl]-3-(dimethyl-1,2-oxazol-4-yl)-5H-pyrido[3,2-b]indol-7-yl}propan-2-ol], the IC50 was less than 5 nM.

Consider `Cc1noc(C)c1-c1cnc2c3ccc(C(C)(C)O)cc3n(C(c3ccc(F)c(F)c3)C3CCOCC3)c2c1` (single isomer, unassigned) [Example 141, 2-{5-[(3,4-Difluorophenyl)(oxan-4-yl)methyl]-3-(dimethyl-1,2-oxazol-4-yl)-5H-pyrido[3,2-b]indol-7-yl}propan-2-ol], for which the IC50 was less than 25 nM.

For the molecule `Cc1noc(C)c1-c1cnc2c3ccc(C(C)(C)O)cc3n(C(c3ccc(F)c(F)c3)C3CCOCC3)c2c1` (single isomer, unassigned) [Example 142, 2-{5-[(3,4-Difluorophenyl)(oxan-4-yl)methyl]-3-(dimethyl-1,2-oxazol-4-yl)-5H-pyrido[3,2-b]indol-7-yl}propan-2-ol], the 50% inhibitory concentration (IC50) was less than 5 nM.

As to `Cc1noc(C)c1-c1cnc2c3ccc(C(C)(C)O)cc3n(C(c3c(F)cccc3F)C3CCOCC3)c2c1` (single isomer, unassigned) [Example 143, 2-{5-[(2,6-Difluorophenyl)(oxan-4-yl)methyl]-3-(dimethyl-1,2-oxazol-4-yl)-5H-pyrido[3,2-b]indol-7-yl}propan-2-ol], the IC50 is less than 5 nM.

In the case of `Cc1noc(C)c1-c1cnc2c3ccc(C(C)(C)O)cc3n(C(c3c(F)cccc3F)C3CCOCC3)c2c1` (single isomer, unassigned) [Example 144, 2-{5-[(2,6-Difluorophenyl)(oxan-4-yl)methyl]-3-(dimethyl-1,2-oxazol-4-yl)-5H-pyrido[3,2-b]indol-7-yl}propan-2-ol], the IC50 was less than 5 nM.

As for `Cc1noc(C)c1-c1cnc2c3ccc(C(C)(C)O)cc3n(C(c3cccc(F)c3F)C3CCOCC3)c2c1` (single isomer, unassigned) [Example 145, 2-{5-[(2,3-Difluorophenyl)(oxan-4-yl)methyl]-3-(dimethyl-1,2-oxazol-4-yl)-5H-pyrido[3,2-b]indol-7-yl}propan-2-ol], the IC50 is less than 5 nM.

As for `Cc1noc(C)c1-c1cnc2c3ccc(C(C)(C)O)cc3n(C(c3cccc(F)c3F)C3CCOCC3)c2c1` (single isomer, unassigned) [Example 146, 2-{5-[(2,3-Difluorophenyl)(oxan-4-yl)methyl]-3-(dimethyl-1,2-oxazol-4-yl)-5H-pyrido[3,2-b]indol-7-yl}propan-2-ol], the IC50 is less than 5 nM.

As to `Cc1noc(C)c1-c1cnc2c3ccc(C(C)(C)O)cc3n(C(c3cccc(F)c3)C3CCOCC3)c2c1` (single isomer, unassigned) [Example 147, 2-[3-(Dimethyl-1,2-oxazol-4-yl)-5-[(3-fluorophenyl)(oxan-4-yl)methyl]-5H-pyrido[3,2-b]indol-7-yl]propan-2-ol], the IC50 was less than 5 nM.

`Cc1noc(C)c1-c1cnc2c3ccc(C(C)(C)O)cc3n(C(c3cccc(F)c3)C3CCOCC3)c2c1` (single isomer, unassigned) [Example 148, 2-[3-(Dimethyl-1,2-oxazol-4-yl)-5-[(3-fluorophenyl)(oxan-4-yl)methyl]-5H-pyrido[3,2-b]indol-7-yl]propan-2-ol]: the half-inhibitory concentration (IC50) was less than 25 nM.

Consider `Cc1noc(C)c1-c1cnc2c3ccc(C(C)(C)O)cc3n(C(c3ccccc3F)C3CCOCC3)c2c1` (single isomer, unassigned) [Example 149, 2-[3-(Dimethyl-1,2-oxazol-4-yl)-5-[(2-fluorophenyl)(oxan-4-yl)methyl]-5H-pyrido[3,2-b]indol-7-yl]propan-2-ol], for which the half-maximal inhibitory concentration (IC50) is less than 5 nM.

With `Cc1noc(C)c1-c1cnc2c3ccc(C(C)(C)O)cc3n(C(c3ccccc3F)C3CCOCC3)c2c1` (single isomer, unassigned) [Example 150, 2-[3-(Dimethyl-1,2-oxazol-4-yl)-5-[(2-fluorophenyl)(oxan-4-yl)methyl]-5H-pyrido[3,2-b]indol-7-yl]propan-2-ol], the 50% inhibitory concentration (IC50) was less than 5 nM.
